Columns and labels:
TRα = biological target: T1, TRα (Homo sapiens, UniProt P10827); test: TR reporter-gene assay (Gal4 DBD hybrid, luciferase), TRα; assay type: cell-based; conditions: HEK293-derived reporter cells, 24 hr treatment; read-out: TRα EC50
T1 construct: expressed in transfected cells; host or cells: HEK293
T1 sequence (P10827 1-410 isoform P10827-2): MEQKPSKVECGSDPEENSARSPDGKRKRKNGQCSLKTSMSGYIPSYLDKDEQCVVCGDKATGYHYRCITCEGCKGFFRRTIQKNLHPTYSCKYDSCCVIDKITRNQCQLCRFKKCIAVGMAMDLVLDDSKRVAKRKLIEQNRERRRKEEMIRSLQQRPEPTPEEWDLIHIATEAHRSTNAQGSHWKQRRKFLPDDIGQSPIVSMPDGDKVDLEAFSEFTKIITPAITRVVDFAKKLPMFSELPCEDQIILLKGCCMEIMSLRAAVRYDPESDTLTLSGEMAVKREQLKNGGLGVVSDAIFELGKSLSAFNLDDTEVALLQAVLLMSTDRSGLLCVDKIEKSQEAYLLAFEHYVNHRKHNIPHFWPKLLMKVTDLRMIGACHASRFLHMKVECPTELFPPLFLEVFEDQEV
Outline: (§1)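 HEK293 reporter cells expressing Gal4-DBD/TR ligand-binding hybrids driving firefly luciferase from a Gal4 UAS; cells pre-incubated 6 h, then treated 24 h at 37 °C in medium with 10% charcoal-stripped FBS (final DMSO 0.1–0.4%), in duplicate. Read-out was luminescence (RLU).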

[1] = Brain levels of parent acid after dosing prodrug (FIG. 1); assay type: in vivo; conditions: compared with dosing Compound 15 itself
Excerpt: The acid compounds of the present invention (R^1=—OR^1c and R^1c=H) are active agonists selectively activating the TRβ receptor. The amide compounds of the present invention (R^1=—NR^1aR^1b) may act as substrates for the specific hydrolase enzyme fatty acid-amide hydrolase (FAAH), which cleaves the amide, liberating the thyromimetic. Thus, prodrug conversion to drug is enhanced in tissues that express high levels of FAAH such as the central nervous system. […] The ester compounds of the present invention (R^1=—OR^1c and R^1c≠H) are also prodrugs, typically processed through the action of esterases which may exist selectively in specific tissues.

TRβ = biological target: T2, TRβ (Homo sapiens, UniProt P10828); test: TR reporter-gene assay (Gal4 DBD hybrid, luciferase), TRβ; assay type: cell-based; conditions: for EC50: HEK293-derived reporter cells, 24 hr treatment, read-out: TRβ EC50; for T3-SI (selectivity index, EC50 (TRα)/EC50 (TRβ)): class symbols
T2 construct: expressed in transfected cells; host or cells: HEK293
T2 sequence (P10828 217-461 limits assumed): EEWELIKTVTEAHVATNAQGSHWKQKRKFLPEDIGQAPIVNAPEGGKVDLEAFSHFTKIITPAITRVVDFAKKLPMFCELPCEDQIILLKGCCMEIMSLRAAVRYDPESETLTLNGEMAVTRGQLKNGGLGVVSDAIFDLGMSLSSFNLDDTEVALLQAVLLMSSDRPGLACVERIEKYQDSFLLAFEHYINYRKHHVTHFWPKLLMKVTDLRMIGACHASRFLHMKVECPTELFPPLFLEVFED
Outline: as §1

[2] = biological target: T3, recombinant human FAAH (rhFAAH) (Homo sapiens, UniProt O00519); test: FAAH substrate evaluation (formation of acid metabolite, LC-MS/MS); assay type: biochemical; parameters: key: A: ke is equal to or less than 1.0; B: ke is greater than 1.0 and less than or equal to 2.5; C: ke is greater than 2.5; NC: no conversion; conditions: 0.5 ng/μL rhFAAH, 1 μM test compound, pH 8.0, room temperature, 0-60 minutes
T3 construct: purchased Cayman Chemical (Ann Arbor, MI, USA)
T3 sequence (O00519 1-579): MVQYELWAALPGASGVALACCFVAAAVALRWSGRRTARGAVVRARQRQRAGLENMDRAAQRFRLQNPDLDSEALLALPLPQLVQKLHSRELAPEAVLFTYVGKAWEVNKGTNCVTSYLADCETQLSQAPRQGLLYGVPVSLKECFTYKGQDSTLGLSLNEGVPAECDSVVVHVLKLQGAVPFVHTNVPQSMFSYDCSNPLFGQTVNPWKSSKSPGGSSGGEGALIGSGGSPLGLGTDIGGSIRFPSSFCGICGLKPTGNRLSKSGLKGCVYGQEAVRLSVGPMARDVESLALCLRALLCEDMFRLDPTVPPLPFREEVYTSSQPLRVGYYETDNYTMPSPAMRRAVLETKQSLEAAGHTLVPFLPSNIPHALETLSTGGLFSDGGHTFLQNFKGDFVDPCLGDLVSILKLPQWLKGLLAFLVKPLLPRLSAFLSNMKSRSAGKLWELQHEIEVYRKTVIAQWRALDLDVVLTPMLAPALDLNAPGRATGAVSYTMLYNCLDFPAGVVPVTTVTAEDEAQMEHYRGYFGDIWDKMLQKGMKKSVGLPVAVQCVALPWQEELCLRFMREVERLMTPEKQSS
Outline: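 Test compound at 1 μM incubated at room temperature with 0.5 ng/μL rhFAAH, 0.1% BSA in Tris-EDTA pH 8.0; parallel incubations with 1 μM PF-3845 inhibitor. Samples quenched at 0-60 min; acid metabolite quantified by LC-MS/MS, ke taken as slope of metabolite concentration versus time.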

Row | SMILES | EC50 (TRα) | brain levels of the parent acid Compound 15 [1] | EC50 (TRβ) | T3-SI (selectivity index, EC50 (TRα)/EC50 (TRβ)) (TRβ) | ke, observed rate constant for the acid metabolite formation [2]
1 | CC(C)c1cc(Cc2c(Cl)cc(CCCC(=O)O)cc2Cl)ccc1O [Compound 16, 4-(3,5-dichloro-4-(4-hydroxy-3-isopropylbenzyl)phenyl)butanoic acid] | > 1 µM | markedly higher brain levels | 0.1 to 1 µM | +++ (T3-SI > 30×) | –
2 | COC(=O)CCc1cc(Cl)c(Cc2ccc(O)c(C(C)c3ccc(F)cc3)c2F)c(Cl)c1 (stereo not shown) [Compound 17, methyl 3-(3,5-dichloro-4-(2-fluoro-3-(1-(4-fluorophenyl)ethyl)-4-hydroxybenzyl)phenyl)propanoate] | – | markedly higher brain levels | – | – | –
3 | COc1ccc(NC(=O)CNc2cc(Cl)c(Cc3ccc(O)c(C(C)C)c3F)c(Cl)c2F)nn1 [Compound 159, 2-((3,5-dichloro-2-fluoro-4-(2-fluoro-4-hydroxy-3-isopropylbenzyl)phenyl)amino)-N-(6-methoxypyridazin-3-yl)acetamide] | – | – | – | – | B (ke is greater than 1.0 and less than or equal to 2.5)

Second part, the compound after the results:

Row | EC50 (TRα) | brain levels of the parent acid Compound 15 [1] | EC50 (TRβ) | T3-SI (selectivity index, EC50 (TRα)/EC50 (TRβ)) (TRβ) | ke, observed rate constant for the acid metabolite formation [2] | SMILES
4 | > 1 µM | – | > 1 µM | ++ (3× < T3-SI ≤ 30×) | C (ke is greater than 2.5) | CNC(=O)CSCc1cc(C)c(Cc2ccc(O)c(C(C)C)c2)c(Cl)c1F [Compound 217, 2-((3-chloro-2-fluoro-4-(4-hydroxy-3-isopropylbenzyl)-5-methylbenzyl)thio)-N-methylacetamide]
5 | > 1 µM | – | 0.1 to 1 µM | ++ (3× < T3-SI ≤ 30×) | A (ke is equal to or less than 1.0) | CONC(=O)Cc1cc(Cl)c(Cc2ccc(O)c(C(C)C)c2F)c(Cl)c1 [Compound 208, 2-(3,5-dichloro-4-(2-fluoro-4-hydroxy-3-isopropylbenzyl)phenyl)-N-methoxyacetamide]
6 | – | – | > 1 µM | – | NC | CON(C)C(=O)Cc1cc(Cl)c(Cc2ccc(O)c(C(C)C)c2F)c(Cl)c1 [Compound 105, 2-(3,5-dichloro-4-(2-fluoro-4-hydroxy-3-isopropylbenzyl)phenyl)-N-methoxy-N-methylacetamide]

Reference: patent US12528761B2, “Thyromimetics” (Autobahn Therapeutics, Inc., priority 2020, dated 2026)
